This is an account of results in patent US20260078111A1, “CARBONIC ANHYDRASE ENZYME INHIBITORS AND METHODS OF USE THEREOF” (RUTGERS, THE STATE UNIVERSITY OF NEW JERSEY, priority 2022, published 2026).

One experiment has as its system mast cell development from murine bone marrow cells. Kind of experiment: In vitro mast cell development culture assay (IL-3, flow cytometry). Type of experiment: cell-based, mice. Conditions: 10 μm; in vitro mast cell cultures. On the procedure: To further test the ability of 4-(3-hydroxy-1-(4-methoxybenzyl)-2-oxoindolin-3-yl)benzenesulfonamide to inhibit mast cell development, an established mast cell culture assay was employed (Henry, E. K., et al., J Exp Med, 2016. 213(9): p. 1663-73). As a positive control for mast cell development, bone marrow cells were isolated from the femur of mice and cultured in the presence of 10 ng/mL of IL-3 and vehicle (1:10, DMSO/RPMI complete media) for seven days and mast cells were identified by flow cytometric analysis as (c-Kit+ FceRIa+ CD49b− cells).
In vitro Mast Cell development: Briefly, 1×10^6 bone marrow-resident progenitor cells were isolated from the femur of mice and cultured in complete media supplemented with 10 ng/mL of rIL-3 for a period of […]. Mast cells were identified by their expression of the surface molecules FcεRIα and c-Kit via flow cytometric analysis. In addition to IL-3, cultures were treated with vehicle or increasing concentrations of Car enzyme inhibitors at the indicated concentrations.
A general note: In flow cytometry, cells or beads pass a laser one at a time.
For `COc1ccc(CN2C(=O)C(O)(c3ccc(S(N)(=O)=O)cc3)c3ccccc32)cc1` (stereo not shown) [drawing 86], the “Percent Inhibition at 10 μm” value was found to be 91%.

In the case of `NS(=O)(=O)c1ccc(C2(O)C(=O)Nc3ccccc32)cc1` (stereo not shown), the “Percent Inhibition at 10 μm” value stood at 94%.

As for `NS(=O)(=O)c1ccc(C2(F)C(=O)N(Cc3ccc(F)cc3)c3ccccc32)cc1` (stereo not shown), the “Percent Inhibition at 10 μm” value was 98%.

On to `NS(=O)(=O)c1ccc(C2(O)C(=O)N(Cc3ccc(F)cc3)c3ccccc32)cc1` (stereo not shown), for which the “Percent Inhibition at 10 μm” value amounted to 98%.

Turning to `CN1C(=O)C(O)(c2ccc(S(N)(=O)=O)cc2)c2ccccc21` (stereo not shown), the “Percent Inhibition at 10 μm” value was 84%.

In the case of `COc1ccc(CN2C(=O)C(F)(c3ccc(S(N)(=O)=O)cc3)c3ccccc32)cc1` (stereo not shown), the “Percent Inhibition at 10 μm” value amounted to 99%.

On to `CN1C(=O)C(F)(c2ccc(S(N)(=O)=O)cc2)c2ccccc21` (stereo not shown), for which the “Percent Inhibition at 10 μm” value was determined as 100%.

On to `CCN1C(=O)C(F)(c2ccc(S(N)(=O)=O)cc2)c2ccccc21` (stereo not shown), for which the “Percent Inhibition at 10 μm” value is recorded as 99%.

The same experiment, now with this note: Mus musculus, Mast cell, read-out: POI (percent of inhibition based on MC numbers).
As a reminder, the inhibition is the share of the control response that was lost under treatment. In the case of `NS(=O)(=O)c1ccc(C2(O)C(=O)N(c3cccc4cc(N5CCOCC5)ccc34)c3ccccc32)cc1` (stereo not shown) [NEM-36A, 4-[3-hydroxy-1-(6-morpholino-1-naphthyl)-2-oxo-indolin-3-yl]benzenesulfonamide], the inhibition at 15 µM came out at 91%.

For `NS(=O)(=O)c1ccc(C2(O)C(=O)N(Cc3ccc(OC(F)F)cc3)c3ccccc32)cc1` (stereo not shown) [NEM-4A, 4-[1-[[4-(difluoromethoxy)phenyl]methyl]-3-hydroxy-2-oxo-indolin-3-yl]benzenesulfonamide], the inhibition at 15 µM was 82%.

With `NS(=O)(=O)c1ccc(C2(O)C(=O)N(Cc3ccc(N4CCC(F)(F)CC4)cc3)c3ccccc32)cc1` (stereo not shown) [NEM-20A, 4-[1-[[4-(4,4-difluoro-1-piperidyl)phenyl]methyl]-3-hydroxy-2-oxo-indolin-3-yl]benzenesulfonamide], the inhibition at 15 µM turned out to be 100%.

`NS(=O)(=O)c1ccc(C2(O)C(=O)N(Cc3ccc(-c4ccnc(C(F)(F)F)c4)cc3)c3ccccc32)cc1` (stereo not shown) [NEM-45A, 4-[3-hydroxy-2-oxo-1-[[4-[2-(trifluoromethyl)-4-pyridyl]phenyl]methyl]indolin-3-yl]benzenesulfonamide]: the inhibition at 15 µM amounted to 100%.

With `NS(=O)(=O)c1ccc(C2(O)C(=O)N(Cc3ccc(C4CCNCC4)cc3)c3ccccc32)cc1` (stereo not shown) [NEM-21A, 4-[3-hydroxy-2-oxo-1-[[4-(4-piperidyl)phenyl]methyl]indolin-3-yl]benzenesulfonamide], the inhibition at 15 µM was determined as 81%.

Take `NS(=O)(=O)c1ccc(C2(O)C(=O)N(c3cccc4cc(Cl)ccc34)c3ccccc32)cc1` (stereo not shown) [NEM-35A, 4-[1-(6-chloro-1-naphthyl)-3-hydroxy-2-oxo-indolin-3-yl]benzenesulfonamide]: the inhibition at 15 µM is 99%.

Consider `NS(=O)(=O)c1ccc(C2(O)C(=O)N(Cc3ccc(-n4ccnc4)cc3)c3ccccc32)cc1` (stereo not shown) [NEM-25A, 4-[3-hydroxy-1-[(4-imidazol-1-ylphenyl)methyl]-2-oxo-indolin-3-yl]benzenesulfonamide], for which the inhibition at 15 µM came out at 87%.

For the molecule `NS(=O)(=O)c1ccc(C2(O)C(=O)N(c3cccc4cnccc34)c3ccccc32)cc1` (stereo not shown) [NEM-38A, 4-[3-hydroxy-1-(5-isoquinolyl)-2-oxo-indolin-3-yl]benzenesulfonamide], the inhibition at 15 µM turned out to be 63%.

`NS(=O)(=O)c1ccc(C2(O)C(=O)N(c3cccc4cc(F)ccc34)c3ccccc32)cc1` (stereo not shown) [NEM-34A, 4-[1-(6-fluoro-1-naphthyl)-3-hydroxy-2-oxo-indolin-3-yl]benzenesulfonamide]: the inhibition at 15 µM was determined as 99%.

In the case of `CC(C)(C)OC(=O)N1CCC(c2ccc(CN3C(=O)C(O)(c4ccc(S(N)(=O)=O)cc4)c4ccccc43)cc2)CC1` (stereo not shown) [NEM-30A, tert-butyl 4-[4-[[3-hydroxy-2-oxo-3-(4-sulfamoylphenyl)indolin-1-yl]methyl]phenyl]piperidine-1-carboxylate], the inhibition at 15 µM amounted to 100%.

For `COc1ccc(N2C(=O)C(O)(c3ccc(S(N)(=O)=O)cc3)c3ccccc32)cc1` (stereo not shown) [NEM-13A, 4-[3-hydroxy-1-(4-methoxyphenyl)-2-oxo-indolin-3-yl]benzenesulfonamide], the inhibition at 15 µM was 87%.
